Laboratory results: article PMC3985843 (Journal of the American Chemical Society, 2014)

Experiments:
Format in all cases: cell-based
[1] = test system: P. falciparum D6 (CQS) strain; experiment: in vitro antimalarial activity, chloroquine-sensitive D6 strain; conditions: Plasmodium falciparum, D6, read-out: IC50 against D6
[2] = test system: P. falciparum 7G8 (CQR) strain; experiment: in vitro antimalarial activity, chloroquine-resistant 7G8 strain; conditions: Plasmodium falciparum, 7G8, read-out: IC50 against 7G8
[3] = test system: P. falciparum Dd2 (CQR) strain; experiment: in vitro antimalarial activity, chloroquine-resistant Dd2 strain; conditions: Plasmodium falciparum, DD2, read-out: IC50 against Dd2

| Compound | IC50 [1] | IC50 [2] | IC50 [3] |
| --- | --- | --- | --- |
| CCN(CC)CCCC(C)Nc1ccnc2cc(Cl)ccc12 (stereo not drawn) [chloroquine] | 14.3 nM | 131 nM | 110 nM |
| CO[C@@H]1CC(c2ccc[nH]2)=N[C@]12O[C@@H](C)C[C@@H]1CCCCCCCc3ccc([nH]3)[C@H]12 [compound 5, marineosin A] | 138 nM | 199 nM | 127 nM |
